Literature values in PMC2785207 (The Journal of Biological Chemistry, 2009).

Columns and labels:
Sir2 = conditions: reaction product; reacts with the O-alkylamidate to regenerate NAD+ and acetyl lysine; ref [14], [15]
CobB = conditions: E. coli sirtuin CobB; ref [17], [18]

SMILES	inhibition of the Sir2 deacetylation reaction (Sir2)	ribosylation by CobB (CobB)
NC(=O)c1cccnc1 [nicotinamide]	inhibited	–
Cc1cc2nc[nH]c2cc1C [5,6-dimethylbenzimidazole]	–	ribosylates
